Test results published in patent US7883713B2, “Topical application of thiazolyl amides” (AiCuris GmbH & Co. KG, priority 2001, dated 2011).

What was measured:
HSV-1 = assay: Ocular herpes model, HSV-1 infection; type: in vivo, mice (BALB/cABom); details: for number of survivors of 10 infected animals: HSV-1, day 16 after infection; for number of survivors of 10 infected animals / Pathology index HSV-1 infection (cumulative): topical ophthalmic 2% by weight suspension 5x a day, day 0 to day 4; for Pathology index HSV-1 infection (cumulative): day 0 to day 16, 10 animals; for efficacy of topical treatment (eye drops), in words: ocular HSV infection, efficacy applies to HSV-1
Procedure: (§1) To form a 2% by weight suspension, the active ingredients are mixed with Liquifilm eyedrops (Allergan, Ettlingen, Germany) (1 ml containing polyvinyl alcohol 14 mg, and as excipient chlorobutanol ½ H2O 5.25 mg, sodium chloride) and sonified in a glass tube in an ultrasonic bath at 15° C. for 15 min.
(§2) 6-week old female mice, strain BALB/cABom (weight 19 g) are purchased from a commercial breeder (M&B A/S, Denmark) and infected with HSV one week later. The animals are anesthetized in a leakproof glass vessel with diethyl ether (Merck). For the ocular infection, the cornea of the right eye is lightly scratched three times horizontally and three times vertically with a sterile needle (0.4×20 mm). The cornea pretreated in this way is inoculated with 5 μl of virus suspension (5×10^7 pfu HSV-2G, 7.5×10^7 pfu HSV-lwalki). The infected animals are checked each day and examined for signs of an HSV infection (blepharitis, keratitis, encephalitis). The pathology index is set at 1 for affected animals, and the pathology index is set at 0 for symptom-free animals. The particular pathology index of the group on the particular day is calculated by summation for all the animals in the group. The cumulative pathology index is calculated by totalling the pathology indices on individual days. The infection leads to the death of 90-100% of untreated animals due to a generalized infection with prominent central nervous symptoms an average of between 5 and 8 days. Moribund animals are euthanized. The treatment takes place starting 3 h after the infection 5× a day for 5 days by instilling 5 μl of a 2% by weight active ingredient suspension in Liquifilm© eye drops (Allergan, Ettlingen, Germany) (1 ml containing polyvinyl alcohol 14 mg, and as excipient chlorobutanol ½ H2O 5.25 mg, sodium chloride) into the infected right eye of the animal.

HSV-2 [1] = assay: Ocular herpes model, HSV-2 infection; type: in vivo, mice (BALB/cABom); details: for number of survivors of 10 infected animals: HSV-2, day 16 after infection; for number of survivors of 10 infected animals / Pathology index HSV-2 infection (cumulative): topical ophthalmic 2% by weight suspension 5x a day, day 0 to day 4; for Pathology index HSV-2 infection (cumulative): day 0 to day 16, 10 animals; for efficacy of topical treatment (eye drops), in words: ocular HSV infection, efficacy applies to HSV-2
Procedure: as §1, §2

HSV-2 [2] = assay: Zosteriform spread model, percutaneous HSV-2 infection; type: in vivo, hairless mice (C3H/TifBom-hr); details: for efficacy of topical treatment, in words: 2% by weight suspension in 30% isopropyl myristate, 70% ethanol; for Pathology index (cumulative): day 0 to day 21, 10 animals
Procedure: To form a 2% by weight suspension, the active ingredients are mixed with 30% by weight isopropyl myristate/70% by weight of ethanol and sonified in a glass tube in an ultrasonic bath at 15° C. for 15 min.
To produce the ointment preparation, wool alcohol ointment complying with DAB 9 is employed. The active ingredient is suspended in a molten mixture of 0.5 parts by weight of cetyl stearyl alcohol (quality complying with DAB 9), 6 parts by weight of wool wax alcohol (quality complying with DAB 9) and 93.5 parts by weight of white petrolatum (quality complying with DAB 9). The mixture is stirred while cooling to room temperature (about 21° C.).
To produce a so-called “PEG isogel” preparation, the active ingredient is suspended or dissolved in the melt a mixture of lower molecular weight polyethylene glycol (PEG) and higher molecular weight PEG.
A further gel preparation employed is a polyacrylate gel (so-called “carbogel”) which consists of 1 part by weight of Carbopol 974 P NF (manufacturer BF Goodrich, USA), […], 5 part by weight of 5% by weight (m/m) sodium hydroxide solution and 89 parts by weight of water. The preparation is produced by rubbing the Carbopol with the isopropanol, adding the active ingredient, and dispersing the mixture in water. The sodium hydroxide solution is added stepwise with stirring. A gel is formed.
6-week old female hairless mice (C3H/TifBom-hr) are purchased from a commercial breeder (M&B A/S, Denmark) and infected with HSV one week later. The animals are anesthetized with diethyl ether (Merck) in a leakproof glass vessel. For the dermal infection, the skin on the right flank or in the neck region of the animal is scratched 10× crosswise with a sterile needle (0.6×25 mm). The skin pretreated in this way is inoculated with 10 μl of virus suspension (1×10^6 pfu HSV-2G; 1.5×10^6 p fu HSV-lwalki). The animals are inspected each day, and the pathology index is determined by means of the following scale: 0: no visible signs of infection, 1: blistering, 2: slight spread in the dermatome (shingles), 3: large areas affected (shingles), 4: confluent shingles bands, 5: paralysis of the extremities, 6: death. The particular pathology index of the group on the particular day is calculated by forming the average for all the animals in the group. The cumulative pathology index is calculated by totalling the pathology indices for individual days. The infection leads to death of 90-100% of the untreated animals due to a generalized infection with prominent central nervous symptoms an average of between 5 and 8 days. Moribund animals are euthanized. […]

[3] = HSV-2, right flank, 2% by weight suspension in 30% isopropyl myristate/70% ethanol on skin 2x a day, day 0 to day 4

Structure (SMILES) | number of survivors of 10 infected animals (HSV-1) | Pathology index HSV-1 infection (cumulative) (HSV-1) | efficacy of topical treatment (eye drops), in words (HSV-1) | number of survivors of 10 infected animals (HSV-2 [1]) | Pathology index HSV-2 infection (cumulative) (HSV-2 [1]) | efficacy of topical treatment (eye drops), in words (HSV-2 [1]) | efficacy of topical treatment, in words (HSV-2 [2]; HSV-2, right flank) | Pathology index (cumulative) (HSV-2 [2]; [3]) | effect of short treatment on infection, in words (HSV-2 [2]; HSV-2G, neck region, 2% by weight PEG isogel 2x a day for 2 days (4 treatments)) | Pathology index (cumulative) (HSV-2 [2]; HSV-2G, neck region, 2% by weight PEG isogel on skin 2x a day, day 0 to day 1) | efficacy of topical treatment with various formulations, in words (HSV-2 [2]; HSV-2G, neck region, formulations with 3% by weight active ingredient)
Cc1nc(N(C)C(=O)Cc2ccc(-c3cc(F)ccc3F)cc2)sc1S(N)(=O)=O [N-[5-(Aminosulfonyl)-4-methyl-1,3-thiazol-2-yl]-2-(2′,5′-difluoro-1,1′-biphenyl-4-yl)-N-methylacetamide] | 10 | 0 | extensive efficacy | 4 | 42 | extensive efficacy |  |  |  |  | 
Nc1nc2c(ncn2COCCO)c(=O)[nH]1 [Aciclovir, reference compound] | 7 | 33 |  | 1 | 90 |  |  |  |  |  | 
Cc1nc(N(C)C(=O)Cc2ccc(-c3ccccn3)cc2)sc1S(N)(=O)=O [N-[5-(Aminosulfonyl)-4-methyl-1,3-thiazol-2-yl]-N-methyl-2-[4-(2-pyridyl)phenyl]acetamide] | 10 | 0 | extensive efficacy | 9 | 7 | extensive efficacy | extensive efficacy | 0.3 | completely suppressed | 0.3 | extensive efficacy
Cc1nc(N(C)C(=O)Cc2ccc(-c3cccc(F)c3)cc2)sc1S(N)(=O)=O [N-[5-(aminosulfonyl)-4-methyl-1,3-thiazol-2-yl]-2-(3′-fluoro-1,1′-biphenyl-4-yl)-N-methylacetamide] |  |  |  |  |  |  | extensive efficacy | 0.3 |  |  | 
Cc1nc(N(C)C(=O)Cc2ccc(-c3ccccc3)cc2)sc1S(N)(=O)=O [N-[5-Aminosulfonyl)-4-methyl-1,3-thiazol-2-yl]-2-[1,1′-biphenyl]-4-yl-N-methylacetamide] |  |  |  |  |  |  | extensive efficacy | 7.9 |  |  | 
Cc1nc(N(C)C(=O)Cc2ccc(-c3ccccc3F)cc2)sc1S(N)(=O)=O [N-[5-(Aminosulfonyl)-4-methyl-1,3-thiazol-2-yl]-2-(2′-fluoro[1,1′-biphenyl]-4-yl)-N-methylacetamide] |  |  |  |  |  |  | extensive efficacy | 0.2 |  |  | 
